# Results as given in publication PMC12377202, “Design, synthesis, and cytotoxic evaluation of quinazoline-based derivatives as VEGER-2 inhibitors: comparative study against EGFR kinase activity, induction of apoptosis, and molecular docking study” (RSC Advances, 2025).
# How the values were obtained:
# MCF-7 = experiment: MTT anti-proliferative assay, MCF-7; format: cell-based, human; conditions: Homo sapiens, MCF7
# HepG-2 = experiment: MTT anti-proliferative assay, HepG-2; format: cell-based, human; conditions: Homo sapiens, HepG2
# K-562 = experiment: MTT anti-proliferative assay, K-562; format: cell-based, human; conditions: Homo sapiens, K562
# caspase-3 = experiment: Caspase-3 expression level in HepG-2 cells; format: cell-based, human; conditions: for Caspase-3 ± SE: HepG-2, at IC50 concentrations, control 0.460
# Procedure: (§1) All synthesized compounds were tested at their cytotoxic concentrations in HepG-2 cells for analysis of gene expression levels of apoptotic markers caspase-3, caspase-9, TNF-α, and IL-6 proteins, and only two active compounds were tested for BAX and Bcl-2 proteins.
# (§2) through Flow cytometric analysis.
# (§3) Pellets were collected again and incubated with
# (§4) Total RNA from vehicle-treated
# (§5) (Thermo Scientific, USA).
# (§6) All experiments were performed in […]
# caspase-9 = experiment: Caspase-9 expression level in HepG-2 cells; format: cell-based, human; conditions: for Caspase-9 ± SE: HepG-2, at IC50 concentrations, control 11.01
# Procedure: as §1, §2, §3, §4, §5, §6
# TNF-alpha = TNF-alpha level in HepG-2 cells; format: cell-based, human; conditions: control 43.48
# Procedure: as §1, §2, §3, §4, §5, §6
# IL-6R = IL-6R level in HepG-2 cells; format: cell-based, human
# Procedure: as §1, §2, §3, §4, §5, §6
# EGFR = EGFR (Homo sapiens, UniProt P00533); experiment: EGFR kinase inhibition assay (ELISA kit)
# VEGFR-2 = VEGFR-2 (Homo sapiens, UniProt P35968); experiment: In vitro VEGFR-2 inhibitory assay (ELISA kit); conditions: VEGFR-2 kinase
# Chain of VEGFR-2 (P35968 20-1356): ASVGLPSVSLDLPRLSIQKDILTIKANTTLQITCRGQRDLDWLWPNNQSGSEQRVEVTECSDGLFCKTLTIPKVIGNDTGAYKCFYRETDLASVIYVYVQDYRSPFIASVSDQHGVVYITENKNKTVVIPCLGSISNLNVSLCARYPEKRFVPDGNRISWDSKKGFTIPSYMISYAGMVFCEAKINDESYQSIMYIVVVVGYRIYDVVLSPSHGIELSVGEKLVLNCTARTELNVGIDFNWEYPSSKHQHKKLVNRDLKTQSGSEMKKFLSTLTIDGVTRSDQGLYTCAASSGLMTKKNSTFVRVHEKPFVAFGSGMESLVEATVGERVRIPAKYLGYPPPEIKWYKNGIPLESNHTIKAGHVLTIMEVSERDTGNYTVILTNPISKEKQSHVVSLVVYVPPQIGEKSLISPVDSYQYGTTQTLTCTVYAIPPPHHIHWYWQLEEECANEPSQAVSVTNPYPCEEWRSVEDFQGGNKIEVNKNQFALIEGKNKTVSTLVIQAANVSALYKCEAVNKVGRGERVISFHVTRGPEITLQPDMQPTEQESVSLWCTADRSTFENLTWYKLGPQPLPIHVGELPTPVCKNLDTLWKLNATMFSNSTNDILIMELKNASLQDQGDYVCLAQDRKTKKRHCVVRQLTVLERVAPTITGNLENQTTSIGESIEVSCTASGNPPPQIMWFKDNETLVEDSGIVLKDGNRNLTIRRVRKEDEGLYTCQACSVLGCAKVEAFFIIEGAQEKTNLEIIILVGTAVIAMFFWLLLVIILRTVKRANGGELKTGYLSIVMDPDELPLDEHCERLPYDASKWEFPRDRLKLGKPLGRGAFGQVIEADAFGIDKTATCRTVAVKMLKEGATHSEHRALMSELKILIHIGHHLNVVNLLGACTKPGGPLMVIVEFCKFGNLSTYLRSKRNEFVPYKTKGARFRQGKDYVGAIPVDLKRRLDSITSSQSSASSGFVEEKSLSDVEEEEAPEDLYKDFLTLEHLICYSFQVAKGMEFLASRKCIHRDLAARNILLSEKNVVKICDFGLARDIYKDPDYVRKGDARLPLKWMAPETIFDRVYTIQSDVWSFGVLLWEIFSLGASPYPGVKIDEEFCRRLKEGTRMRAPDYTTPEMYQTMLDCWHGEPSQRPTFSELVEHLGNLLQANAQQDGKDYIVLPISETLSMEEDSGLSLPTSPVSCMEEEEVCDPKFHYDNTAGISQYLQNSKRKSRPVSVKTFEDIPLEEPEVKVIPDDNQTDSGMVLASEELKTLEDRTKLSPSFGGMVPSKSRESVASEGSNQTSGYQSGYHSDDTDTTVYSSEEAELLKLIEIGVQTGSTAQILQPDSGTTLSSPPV
# Chain of EGFR (P00533 25-1210): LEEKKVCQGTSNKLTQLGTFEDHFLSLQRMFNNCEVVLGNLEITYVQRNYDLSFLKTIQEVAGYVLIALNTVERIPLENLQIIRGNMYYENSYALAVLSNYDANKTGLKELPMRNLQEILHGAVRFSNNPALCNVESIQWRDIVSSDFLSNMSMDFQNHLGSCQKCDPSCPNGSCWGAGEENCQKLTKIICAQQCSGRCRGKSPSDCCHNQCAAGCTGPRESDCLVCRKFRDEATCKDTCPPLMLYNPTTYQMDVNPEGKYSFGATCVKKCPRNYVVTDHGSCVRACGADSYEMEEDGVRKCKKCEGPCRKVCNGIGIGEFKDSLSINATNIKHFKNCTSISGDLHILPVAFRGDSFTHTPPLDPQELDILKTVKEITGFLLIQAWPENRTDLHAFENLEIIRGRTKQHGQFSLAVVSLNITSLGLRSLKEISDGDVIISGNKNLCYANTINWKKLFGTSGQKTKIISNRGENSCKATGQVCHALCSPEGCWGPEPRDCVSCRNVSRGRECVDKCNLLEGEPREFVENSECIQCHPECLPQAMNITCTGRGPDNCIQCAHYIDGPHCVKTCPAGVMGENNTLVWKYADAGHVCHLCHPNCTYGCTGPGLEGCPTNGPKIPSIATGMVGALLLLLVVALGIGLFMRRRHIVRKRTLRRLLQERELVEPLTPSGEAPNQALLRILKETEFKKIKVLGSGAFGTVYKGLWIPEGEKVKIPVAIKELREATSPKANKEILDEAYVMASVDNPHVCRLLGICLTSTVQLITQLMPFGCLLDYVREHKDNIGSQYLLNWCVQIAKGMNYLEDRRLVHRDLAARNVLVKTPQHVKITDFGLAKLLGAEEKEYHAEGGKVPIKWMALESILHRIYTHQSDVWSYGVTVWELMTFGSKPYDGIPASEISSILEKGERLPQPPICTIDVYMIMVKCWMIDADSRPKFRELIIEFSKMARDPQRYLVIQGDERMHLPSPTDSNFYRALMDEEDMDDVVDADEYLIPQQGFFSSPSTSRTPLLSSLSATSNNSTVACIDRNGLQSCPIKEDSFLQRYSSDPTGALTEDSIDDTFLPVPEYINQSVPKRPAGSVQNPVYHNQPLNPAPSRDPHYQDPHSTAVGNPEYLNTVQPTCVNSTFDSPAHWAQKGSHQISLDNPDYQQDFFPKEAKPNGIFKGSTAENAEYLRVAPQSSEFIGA
structure (smiles),measurement,setting,value
"O=C(Cn1cnc2cc(Cl)ccc2c1=O)Nc1ccccc1Cl [8b, 2-(7-Chloro-4-oxoquinazolin-3(4H)-yl)-N-(2-chlorophenyl)acetamide]",viability at 0.195 µmol,"MCF-7; MCF-7, 0.195 umol",47.8%
same,cytotoxicity at 0.195 µmol,"MCF-7; MCF-7, 0.195 umol, read-out: Toxicity %",52.2%
same,viability at 0.391 µmol,"MCF-7; MCF-7, 0.391 umol",28.6%
same,cytotoxicity at 0.391 µmol,"MCF-7; MCF-7, 0.391 umol, read-out: Toxicity %",71.4%
same,viability at 0.781 µmol,"MCF-7; MCF-7, 0.781 umol",14.1%
same,cytotoxicity at 0.781 µmol,"MCF-7; MCF-7, 0.781 umol, read-out: Toxicity %",85.9%
same,viability at 1.563 µmol,"MCF-7; MCF-7, 1.563 umol",12%
same,cytotoxicity at 1.563 µmol,"MCF-7; MCF-7, 1.563 umol, read-out: Toxicity %",88%
same,viability at 3.125 µmol,"MCF-7; MCF-7, 3.125 umol",9.81%
same,cytotoxicity at 3.125 µmol,"MCF-7; MCF-7, 3.125 umol, read-out: Toxicity %",90.2%
same,viability at 6.25 µmol,"MCF-7; MCF-7, 6.25 umol",8.27%
same,cytotoxicity at 6.25 µmol,"MCF-7; MCF-7, 6.25 umol, read-out: Toxicity %",91.7%
same,viability at 12.5 µmol,"MCF-7; MCF-7, 12.5 umol",6.86%
same,cytotoxicity at 12.5 µmol,"MCF-7; MCF-7, 12.5 umol, read-out: Toxicity %",93.1%
same,viability at 25 µmol,"MCF-7; MCF-7, 25 umol",6.68%
same,cytotoxicity at 25 µmol,"MCF-7; MCF-7, 25 umol, read-out: Toxicity %",93.3%
same,IC50,"MCF-7; MTT, MCF-7, read-out: Cytotoxicity against cancer cells IC50 MCF-7",191 ± 4 nM
same,viability at 0.195 µg/mL,"HepG-2; HepG-2, 0.195 ug/ml",52.9%
same,cytotoxicity at 0.195 µg/mL,"HepG-2; HepG-2, 0.195 ug/ml, read-out: Toxicity %",47.1%
same,viability at 0.391 µg/mL,"HepG-2; HepG-2, 0.391 ug/ml",33.3%
same,cytotoxicity at 0.391 µg/mL,"HepG-2; HepG-2, 0.391 ug/ml, read-out: Toxicity %",66.7%
same,viability at 0.781 µg/mL,"HepG-2; HepG-2, 0.781 ug/ml",27.5%
same,cytotoxicity at 0.781 µg/mL,"HepG-2; HepG-2, 0.781 ug/ml, read-out: Toxicity %",72.5%
same,viability at 1.563 µg/mL,"HepG-2; HepG-2, 1.563 ug/ml",13.7%
same,cytotoxicity at 1.563 µg/mL,"HepG-2; HepG-2, 1.563 ug/ml, read-out: Toxicity %",86.3%
same,viability at 3.125 µg/mL,"HepG-2; HepG-2, 3.125 ug/ml",9.67%
same,cytotoxicity at 3.125 µg/mL,"HepG-2; HepG-2, 3.125 ug/ml, read-out: Toxicity %",90.3%
same,viability at 6.25 µg/mL,"HepG-2; HepG-2, 6.25 ug/ml",8.39%
same,cytotoxicity at 6.25 µg/mL,"HepG-2; HepG-2, 6.25 ug/ml, read-out: Toxicity %",91.6%
same,viability at 12.5 µg/mL,"HepG-2; HepG-2, 12.5 ug/ml",7.03%
same,cytotoxicity at 12.5 µg/mL,"HepG-2; HepG-2, 12.5 ug/ml, read-out: Toxicity %",93%
same,viability at 25 µg/mL,"HepG-2; HepG-2, 25 ug/ml",5.68%
same,cytotoxicity at 25 µg/mL,"HepG-2; HepG-2, 25 ug/ml, read-out: Toxicity %",94.3%
same,IC50,"HepG-2; MTT, HepG-2, read-out: Cytotoxicity against cancer cells IC50 HepG-2",224.2 ± 1.7 nM
same,viability at 0.195 µmol,"K-562; K-562, 0.195 umol",82.7%
same,cytotoxicity at 0.195 µmol,"K-562; K-562, 0.195 umol, read-out: Toxicity %",17.3%
same,viability at 0.391 µmol,"K-562; K-562, 0.391 umol",55.2%
same,cytotoxicity at 0.391 µmol,"K-562; K-562, 0.391 umol, read-out: Toxicity %",44.8%
same,viability at 0.781 µmol,"K-562; K-562, 0.781 umol",27.4%
same,cytotoxicity at 0.781 µmol,"K-562; K-562, 0.781 umol, read-out: Toxicity %",72.6%
same,viability at 1.563 µmol,"K-562; K-562, 1.563 umol",16.4%
same,cytotoxicity at 1.563 µmol,"K-562; K-562, 1.563 umol, read-out: Toxicity %",83.6%
same,viability at 3.125 µmol,"K-562; K-562, 3.125 umol",11.1%
same,cytotoxicity at 3.125 µmol,"K-562; K-562, 3.125 umol, read-out: Toxicity %",88.9%
same,viability at 6.25 µmol,"K-562; K-562, 6.25 umol",8.54%
same,cytotoxicity at 6.25 µmol,"K-562; K-562, 6.25 umol, read-out: Toxicity %",91.5%
same,viability at 12.5 µmol,"K-562; K-562, 12.5 umol",7.8%
same,cytotoxicity at 12.5 µmol,"K-562; K-562, 12.5 umol, read-out: Toxicity %",92.2%
same,viability at 25 µmol,"K-562; K-562, 25 umol",6.69%
same,cytotoxicity at 25 µmol,"K-562; K-562, 25 umol, read-out: Toxicity %",93.3%
same,IC50,"K-562; MTT, K-562, read-out: Cytotoxicity against cancer cells IC50 K-562",464.2 ± 3 nM
same,Caspase-3 ± SE,caspase-3,1.10 ± 0.046 ng/mL
same,Caspase-3 ± SE,caspase-3; listed as R3,1.10 ng/mL
same,"caspase-3 expression level, fold increase","caspase-3; HepG-2, vs control cells",2.40 fold
same,Caspase-9 ± SE,caspase-9,83.31 ± 1.28 ng/L
same,Caspase-9 ± SE,caspase-9; listed as R3,83.31 ng/L
same,"caspase-9 expression level, fold increase","caspase-9; HepG-2, vs control cells",7.5 fold
same,TNF-alpha ±SE,"TNF-alpha; HepG-2, at IC50 concentrations",23.47 ± 0.56 ng/L
same,TNF-alpha ±SE,"TNF-alpha; raw data, HepG2",16.86 ng/L
same,IL-6R ± SE,"IL-6R; HepG-2, at IC50 concentrations, control 44.10",24.59 ± 0.95 ng/L
same,IL-6R protein level,"IL-6R; HepG-2, control 44.10%",24.59 ng/L
same,IL-6 ±SE,"IL-6R; raw data, HepG2, control 44.10",11.87 ng/L
same,Activity %,EGFR; HepG2,16.278%
same,Inhibition %,EGFR; HepG2,83.722%
same,Activity %,EGFR; K-562,17.305%
same,Inhibition %,EGFR; K-562,82.695%
same,Activity %,EGFR; MCF7,18.736%
same,Inhibition %,EGFR; MCF7,81.264%
same,Activity %,VEGFR-2; HepG2,11.673%
same,Inhibition %,VEGFR-2; HepG2,88.327%
same,Activity %,VEGFR-2; K-562,21.332%
same,Inhibition %,VEGFR-2; K-562,78.668%
same,Activity %,VEGFR-2; MCF7,19.260%
same,Inhibition %,VEGFR-2; MCF7,80.740%
